According to ChEMBL document CHEMBL3108665, “Himbacine-derived thrombin receptor antagonists: c7-aminomethyl and c9a-hydroxy analogues of vorapaxar” (ACS Med Chem Lett, 2014):
Calls of active or inactive are those of the source. The calls are words filed in the database; no cut-off is given here.

Columns and labels:
[1] = AUC (0 to 6 hrs) in rat plasma at 10 mg/kg, po; type: ADME, organism-based; parameters: time < 6 hr, dose 10 mg/kg, route oral
[2] = molecular target: T1, Proteinase-activated receptor 1 (Homo sapiens, UniProt P25116); test: Displacement of [3H]haTRAP from PAR-1 isolated from human platelets by liquid scintillation counting analysis
T1 sequence (P25116 whole entry): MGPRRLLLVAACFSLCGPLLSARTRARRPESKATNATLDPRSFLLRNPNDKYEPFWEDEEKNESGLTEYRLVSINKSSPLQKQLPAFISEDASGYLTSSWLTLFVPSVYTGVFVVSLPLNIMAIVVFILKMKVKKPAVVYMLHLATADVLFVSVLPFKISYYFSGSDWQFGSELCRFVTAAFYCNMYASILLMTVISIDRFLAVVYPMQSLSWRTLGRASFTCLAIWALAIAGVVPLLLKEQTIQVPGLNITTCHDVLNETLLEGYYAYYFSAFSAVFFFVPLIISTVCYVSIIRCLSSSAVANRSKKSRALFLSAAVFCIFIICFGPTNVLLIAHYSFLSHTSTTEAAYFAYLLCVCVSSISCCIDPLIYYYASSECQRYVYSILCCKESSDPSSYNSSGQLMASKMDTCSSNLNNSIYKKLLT

Cynomolgus monkey = test: Ex vivo inhibition of PAR-1 in cynomolgus monkey blood assessed as inhibition of haTRAP-induced platelet aggregation at 1 mg/kg, po up to 24 hrs by aggregometry; type: functional, organism-based; parameters: dose 1 mg/kg; settings: Macaca fascicularis
[3] = Aqueous solubility of the compound; type: physicochemical

AUC(0-t) at 6 h [1]	Ki [2]	solubility [3]	SMILES	Activity (Cynomolgus monkey)
7.76 µg·h/mL	0.015 µM	–	C[C@H]1OC(=O)[C@@H]2C[C@@H]3C[C@H](CNS(C)(=O)=O)CC[C@H]3[C@H](/C=C/c3ccc(-c4cccc(F)c4)cn3)[C@H]12	–
–	0.02 µM	–	C[C@H]1OC(=O)[C@@H]2C[C@@H]3C[C@H](CN)CC[C@H]3[C@H](/C=C/c3ccc(-c4cccc(F)c4)cn3)[C@H]12	–
2.67 µg·h/mL	0.008 µM	–	C[C@H]1OC(=O)[C@@H]2C[C@@H]3C[C@H](CO)CC[C@H]3[C@H](/C=C/c3ccc(-c4cccc(F)c4)cn3)[C@H]12	–
4.86 µg·h/mL	0.005 µM	–	COC(=O)NC[C@@H]1CC[C@@H]2[C@@H](C1)C[C@H]1C(=O)O[C@H](C)[C@H]1[C@H]2/C=C/c1ccc(-c2cccc(F)c2)cn1	inactive
7.73 µg·h/mL	0.0125 µM	–	CCC(=O)NC[C@@H]1CC[C@@H]2[C@@H](C1)C[C@H]1C(=O)O[C@H](C)[C@H]1[C@H]2/C=C/c1ccc(-c2cccc(F)c2)cn1	–
3.81 µg·h/mL	0.012 µM	–	CC(=O)NC[C@@H]1CC[C@@H]2[C@@H](C1)C[C@H]1C(=O)O[C@H](C)[C@H]1[C@H]2/C=C/c1ccc(-c2cccc(F)c2)cn1	–
–	0.032 µM	–	C[C@H](N)C(=O)NC[C@@H]1CC[C@@H]2[C@@H](C1)C[C@H]1C(=O)O[C@H](C)[C@H]1[C@H]2/C=C/c1ccc(-c2cccc(F)c2)cn1	–
1.21 µg·h/mL	0.014 µM	–	CCOC(=O)NC[C@@H]1CC[C@@H]2[C@@H](C1)C[C@H]1C(=O)O[C@H](C)[C@H]1[C@H]2/C=C/c1ccc(-c2cccc(F)c2)cn1	–
–	0.0145 µM	–	CCS(=O)(=O)NC[C@@H]1CC[C@@H]2[C@@H](C1)C[C@H]1C(=O)O[C@H](C)[C@H]1[C@H]2/C=C/c1ccc(-c2cccc(F)c2)cn1	–
0.567 µg·h/mL	0.0129 µM	–	CCNC(=O)NC[C@@H]1CC[C@@H]2[C@@H](C1)C[C@H]1C(=O)O[C@H](C)[C@H]1[C@H]2/C=C/c1ccc(-c2cccc(F)c2)cn1	–

Further lines, the molecule ahead of its results:

SMILES	AUC(0-t) at 6 h [1]	Ki [2]	solubility [3]	Activity (Cynomolgus monkey)
CCNC(=O)[C@@H]1CC[C@@H]2[C@@H](C1)C[C@H]1C(=O)O[C@H](C)[C@H]1[C@H]2/C=C/c1ccc(-c2cccc(C(F)(F)F)c2)cn1	–	0.035 µM	–	–
CCOC(=O)N[C@@H]1CC[C@@H]2[C@@H](C1)C[C@H]1C(=O)O[C@H](C)[C@H]1[C@H]2/C=C/c1ccc(-c2cccc(F)c2)cn1 [VORAPAXAR]	3.06 µg·h/mL	0.0085 µM	–	–
CC(C)NC(=O)[C@@H]1CC[C@@H]2[C@@H](C1)C[C@H]1C(=O)O[C@H](C)[C@H]1[C@H]2/C=C/c1ccc(-c2cccc(C(F)(F)F)c2)cn1	–	0.031 µM	–	–
C[C@H]1OC(=O)[C@@H]2C[C@@H]3C[C@H](C(=O)Nc4ccncc4)CC[C@H]3[C@H](/C=C/c3ccc(-c4cccc(C(F)(F)F)c4)cn3)[C@H]12	–	0.14 µM	–	–
C[C@H]1OC(=O)[C@@H]2C[C@@H]3C[C@H](CNC(=O)[C@@H]4CCCN4)CC[C@H]3[C@H](/C=C/c3ccc(-c4cccc(F)c4)cn3)[C@H]12	–	0.024 µM	–	–
CCOC(=O)N[C@@H]1CC[C@@H]2[C@@H](C1)C[C@@]1(O)C(=O)O[C@H](C)[C@H]1[C@H]2/C=C/c1ccc(-c2cccc(F)c2)cn1	7.43 µg·h/mL	0.0195 µM	–	Active
C[C@H]1OC(=O)[C@@H]2C[C@@H]3C[C@H](C(=O)NCCO)CC[C@H]3[C@H](/C=C/c3ccc(-c4cccc(C(F)(F)F)c4)cn3)[C@H]12	–	0.098 µM	–	–
CCOC(=O)N1CC[C@@H]2[C@H](C[C@H]3C(=O)O[C@H](C)[C@H]3[C@H]2/C=C/c2ccc(-c3cccc(F)c3)cn2)C1	–	–	< 2 µM	–
C[C@H]1OC(=O)[C@@H]2C[C@@H]3C[C@H](CNC(=O)C4CCNCC4)CC[C@H]3[C@H](/C=C/c3ccc(-c4cccc(F)c4)cn3)[C@H]12	0.005 µg·h/mL	0.0135 µM	–	–
C[C@H]1OC(=O)[C@@H]2C[C@@H]3C[C@H](C(=O)N4CC[C@@H](O)C4)CC[C@H]3[C@H](/C=C/c3ccc(-c4cccc(C(F)(F)F)c4)cn3)[C@H]12	–	0.18 µM	–	–
C[C@H]1OC(=O)[C@@H]2C[C@@H]3C[C@H](C(=O)Nc4cccnc4)CC[C@H]3[C@H](/C=C/c3ccc(-c4cccc(C(F)(F)F)c4)cn3)[C@H]12	–	0.239 µM	–	–
CNC(=O)[C@@H]1CC[C@@H]2[C@@H](C1)C[C@H]1C(=O)O[C@H](C)[C@H]1[C@H]2/C=C/c1ccc(-c2cccc(C(F)(F)F)c2)cn1	–	0.025 µM	–	–
C[C@H]1OC(=O)[C@@H]2C[C@@H]3C[C@H](C(=O)N4CC[C@H](O)C4)CC[C@H]3[C@H](/C=C/c3ccc(-c4cccc(C(F)(F)F)c4)cn3)[C@H]12	–	0.384 µM	–	–
